# Reference: the supplement of paper PMC10307832
# Assays:
# Test in all cases: relative viability (nuclei count vs DMSO), 5 days (fraction); higher = more cells survive
# NCI-H1563 = test system: NCI-H1563
# Procedure, shortened: (§1)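 A single step with final 0.05% Triton X-100, 1% formaldehyde and 1 ug/ml Hoechst fixed the cells and stained nuclei 5 days after treatment. Lung cancer cell lines in 1536-well plates had been treated by pin tool the day after seeding with one drug alone or a fixed anchor-drug dose plus five library-drug doses (not always all listed) in √10 steps, and nuclei were counted on 4× images. Relative viability is the ratio of nuclei in treated wells to nuclei in vehicle wells, taken as the median of duplicate plates.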
# NCI-H1755 = test system: NCI-H1755
# Procedure, shortened: as §1
# NCI-H1792 = test system: NCI-H1792
# Procedure, shortened: as §1
# NCI-H727 = test system: NCI-H727
# Procedure, shortened: as §1
# LCLC-103H = test system: LCLC-103H
# Procedure, shortened: as §1
# NCI-H460 = test system: NCI-H460
# Procedure, shortened: as §1
# NCI-H2347 = test system: NCI-H2347
# Procedure, shortened: as §1
# LXF-289 = test system: LXF-289
# Procedure, shortened: as §1
# NCI-H1355 = test system: NCI-H1355
# Procedure, shortened: as §1
# NCI-H3122 = test system: NCI-H3122
# Procedure, shortened: as §1
# NCI-H1915 = test system: NCI-H1915
# Procedure, shortened: as §1
# NCI-H522 = test system: NCI-H522
# Procedure, shortened: as §1
# NCI-H1651 = test system: NCI-H1651
# Procedure, shortened: as §1
# NCI-H520 = test system: NCI-H520
# Procedure, shortened: as §1
# NCI-H661 = test system: NCI-H661
# Procedure, shortened: as §1
# NCI-H322M = test system: NCI-H322M
# Procedure, shortened: as §1
# RERF-LC-KJ = test system: RERF-LC-KJ
# Procedure, shortened: as §1
# SW 900 = test system: SW 900
# Procedure, shortened: as §1
# PC-14 = test system: PC-14
# Procedure, shortened: as §1
# SK-MES-1 = test system: SK-MES-1
# Procedure, shortened: as §1
# NCI-H441 = test system: NCI-H441
# Procedure, shortened: as §1
# NCI-H596 = test system: NCI-H596
# Procedure, shortened: as §1
smiles,measurement,setting,value
COc1nc(C)cnc1NS(=O)(=O)c1cccnc1-c1ccc(-c2nnco2)cc1 [Zibotentan] + CCNC(=O)c1noc(-c2cc(C(C)C)c(O)cc2O)c1-c1ccc(CN2CCOCC2)cc1 [Luminespib] (partner 0.01 µM),relative viability,NCI-H1563; first compound 0.08 µM,0.474
same,relative viability,NCI-H1563; first compound 0.253 µM,0.499
same,relative viability,NCI-H1563; first compound 0.8 µM,0.552
same,relative viability,NCI-H1563; first compound 2.53 µM,0.559
same,relative viability,NCI-H1755; first compound 0.08 µM,0.338
same,relative viability,NCI-H1755; first compound 0.253 µM,0.558
same,relative viability,NCI-H1755; first compound 0.8 µM,0.489
same,relative viability,NCI-H1755; first compound 2.53 µM,0.252
same,relative viability,NCI-H1792; first compound 0.08 µM,0.417
same,relative viability,NCI-H1792; first compound 0.253 µM,0.362
same,relative viability,NCI-H1792; first compound 0.8 µM,0.469
same,relative viability,NCI-H1792; first compound 2.53 µM,0.346
same,relative viability,NCI-H727; first compound 0.08 µM,0.289
same,relative viability,NCI-H727; first compound 0.253 µM,0.316
same,relative viability,NCI-H727; first compound 0.8 µM,0.83
same,relative viability,NCI-H727; first compound 2.53 µM,0.325
same,relative viability,LCLC-103H; first compound 0.08 µM,0.913
same,relative viability,LCLC-103H; first compound 0.253 µM,0.682
same,relative viability,LCLC-103H; first compound 0.8 µM,0.982
same,relative viability,LCLC-103H; first compound 2.53 µM,0.927
same,relative viability,NCI-H460; first compound 0.08 µM,0.036
same,relative viability,NCI-H460; first compound 0.253 µM,0.0258
same,relative viability,NCI-H460; first compound 0.8 µM,0.0276
same,relative viability,NCI-H460; first compound 2.53 µM,0.0332
same,relative viability,NCI-H2347; first compound 0.253 µM,0.382
same,relative viability,NCI-H2347; first compound 0.8 µM,0.426
same,relative viability,NCI-H2347; first compound 2.53 µM,0.452
same,relative viability,LXF-289; first compound 0.08 µM,0.657
same,relative viability,LXF-289; first compound 0.253 µM,0.683
same,relative viability,LXF-289; first compound 0.8 µM,0.627
same,relative viability,LXF-289; first compound 2.53 µM,0.756
same,relative viability,NCI-H1355; first compound 0.08 µM,0.738
same,relative viability,NCI-H1355; first compound 0.253 µM,0.719
same,relative viability,NCI-H1355; first compound 0.8 µM,0.773
same,relative viability,NCI-H1355; first compound 2.53 µM,0.75
same,relative viability,NCI-H3122; first compound 0.08 µM,0.0904
same,relative viability,NCI-H3122; first compound 0.253 µM,0.112
same,relative viability,NCI-H3122; first compound 0.8 µM,0.0537
same,relative viability,NCI-H3122; first compound 2.53 µM,0.104
same,relative viability,NCI-H1915; first compound 0.08 µM,0.939
same,relative viability,NCI-H1915; first compound 0.253 µM,0.873
same,relative viability,NCI-H1915; first compound 0.8 µM,0.754
same,relative viability,NCI-H1915; first compound 2.53 µM,0.809
same,relative viability,NCI-H522; first compound 0.08 µM,1.26
same,relative viability,NCI-H522; first compound 0.253 µM,1.02
same,relative viability,NCI-H522; first compound 0.8 µM,1.13
same,relative viability,NCI-H522; first compound 2.53 µM,1.09
same,relative viability,NCI-H1651; first compound 0.08 µM,0.802
same,relative viability,NCI-H1651; first compound 0.253 µM,0.484
same,relative viability,NCI-H1651; first compound 0.8 µM,0.958
same,relative viability,NCI-H1651; first compound 2.53 µM,0.796
same,relative viability,NCI-H520; first compound 0.08 µM,0.206
same,relative viability,NCI-H520; first compound 0.253 µM,0.213
same,relative viability,NCI-H520; first compound 0.8 µM,0.242
same,relative viability,NCI-H520; first compound 2.53 µM,0.164
same,relative viability,NCI-H661; first compound 0.08 µM,0.953
same,relative viability,NCI-H661; first compound 0.253 µM,0.836
same,relative viability,NCI-H661; first compound 0.8 µM,0.922
same,relative viability,NCI-H661; first compound 2.53 µM,0.922
same,relative viability,NCI-H322M; first compound 0.08 µM,0.876
same,relative viability,NCI-H322M; first compound 0.253 µM,0.474
same,relative viability,NCI-H322M; first compound 0.8 µM,0.897
same,relative viability,NCI-H322M; first compound 2.53 µM,0.918
same,relative viability,RERF-LC-KJ; first compound 0.08 µM,1.3
same,relative viability,RERF-LC-KJ; first compound 0.253 µM,1.18
same,relative viability,RERF-LC-KJ; first compound 0.8 µM,1.44
same,relative viability,RERF-LC-KJ; first compound 2.53 µM,1.35
same,relative viability,SW 900; first compound 0.08 µM,0.203
same,relative viability,SW 900; first compound 0.253 µM,0.174
same,relative viability,SW 900; first compound 0.8 µM,0.177
same,relative viability,SW 900; first compound 2.53 µM,0.172
same,relative viability,PC-14; first compound 0.08 µM,0.135
same,relative viability,PC-14; first compound 0.8 µM,0.151
same,relative viability,PC-14; first compound 2.53 µM,0.128
same,relative viability,SK-MES-1; first compound 0.08 µM,1.05
same,relative viability,SK-MES-1; first compound 0.253 µM,0.788
same,relative viability,SK-MES-1; first compound 0.8 µM,0.818
same,relative viability,SK-MES-1; first compound 2.53 µM,0.83
same,relative viability,NCI-H441; first compound 0.08 µM,0.41
same,relative viability,NCI-H441; first compound 0.253 µM,0.255
same,relative viability,NCI-H441; first compound 0.8 µM,0.345
same,relative viability,NCI-H441; first compound 2.53 µM,0.368
same,relative viability,NCI-H596; first compound 0.08 µM,1.02
same,relative viability,NCI-H596; first compound 0.253 µM,0.939
same,relative viability,NCI-H596; first compound 0.8 µM,1.16
same,relative viability,NCI-H596; first compound 2.53 µM,1.03
